Test results as given in ChEMBL document CHEMBL3046643, “Effect of chronic treatment with new benzylidene-thiazolidine-2,4-dione (LPSF/GQ-06) with potential hypoglycemic on rat Leydig cell steroidogenesis” (Med Chem Res, 2013).
Activity calls are given as the source filed them. The calls are words filed in the database; no cut-off is given here.

Columns and labels:
[1] = system: Rattus norvegicus; assay: Effect on P450scc expression in Rattus norvegicus Wistar albino (rat) Leydig cells at 5 mg/kg, po after 15 days by immunocytochemistry analysis relative to untreated control; assay type: functional, organism-based; set-up: dose 5 mg/kg
[2] = system: Rattus norvegicus; assay: Effect on StAR expression in Rattus norvegicus Wistar albino (rat) Leydig cells at 5 mg/kg, po after 15 days by immunocytochemistry analysis relative to untreated control; assay type: functional, organism-based; set-up: dose 5 mg/kg
[3] = system: Rattus norvegicus; assay: Toxicity in Rattus norvegicus Wistar albino (rat) Leydig cells assessed as morphological changes at 5 mg/kg, po after 15 days by electron transmission microscopic analysis relative to untreated control; assay type: organism-based; set-up: dose 5 mg/kg, route oral; conditions: in vivo, 360 h
[4] = system: Rattus norvegicus; assay: Toxicity in Rattus norvegicus Wistar albino (rat) Leydig cells assessed as morphological changes at 5 mg/kg, po after 15 days by hematoxylin-eosin staining-based light microscopic analysis relative to untreated control; assay type: organism-based; set-up: dose 5 mg/kg, route oral; conditions: in vivo, 360 h
[5] = system: Rattus norvegicus; assay: Induction of steroidogenesis in Rattus norvegicus Wistar albino (rat) Leydig cells assessed as increase in pregnenolone-induced testosterone level at 5 mg/kg, po after 15 days by radioimmunoassay (reference value: 34 +/- 5.49 no unit); assay type: functional
[6] = system: Rattus norvegicus; assay: Induction of steroidogenesis in Rattus norvegicus Wistar albino (rat) Leydig cells assessed as increase in 22(R)-OH-C-induced testosterone level at 5 mg/kg, po after 15 days by radioimmunoassay (reference value: 83.5 +/- 3.36 no unit); assay type: functional
[7] = system: Rattus norvegicus; assay: Induction of steroidogenesis in Rattus norvegicus Wistar albino (rat) Leydig cells assessed as increase in dbcAMP-induced testosterone level at 5 mg/kg, po after 15 days by radioimmunoassay (reference value: 69.83 +/- 1.85 no unit); assay type: functional
[8] = system: Rattus norvegicus; assay: Induction of steroidogenesis in Rattus norvegicus Wistar albino (rat) Leydig cells assessed as increase in human chorionic gonadotropin-induced testosterone level at 5 mg/kg, po after 15 days by radioimmunoassay (reference value: 92.75 +/- 4.38 no unit); assay type: functional
[9] = system: Rattus norvegicus; assay: Induction of steroidogenesis in Rattus norvegicus Wistar albino (rat) assessed as increase in total plasma testosterone level at 5 mg/kg, po after 15 days (reference value: 2.01 +/- 1.21 ng/mL); assay type: functional
[10] = system: Rattus norvegicus; assay: Toxicity in Rattus norvegicus Wistar albino (rat) assessed as change in relative dry weight of seminal vesicle at 5 mg/kg, po after 15 days; assay type: organism-based; set-up: dose 5 mg/kg, route oral; conditions: in vivo, 360 h
[11] = system: Rattus norvegicus; assay: Toxicity in Rattus norvegicus Wistar albino (rat) assessed as change in relative weight of testis at 5 mg/kg, po after 15 days; assay type: organism-based; set-up: dose 5 mg/kg, route oral; conditions: in vivo, 360 h
[12] = system: Rattus norvegicus; assay: Toxicity in Rattus norvegicus Wistar albino (rat) assessed as change in body weight at 5 mg/kg, po after 15 days; assay type: organism-based; set-up: dose 5 mg/kg, route oral; conditions: in vivo, 360 h

COc1cccc(OC)c1/C=C1\SC(=O)N(Cc2ccc(C)cc2)C1=O
Activity [1]: inactive | Activity [2]: inactive | Activity [3]: Non-toxic | Activity [4]: Non-toxic | testosterone level [5]: 56.66 | testosterone level [6]: 118.3 | testosterone level [7]: 154.16 | testosterone level [8]: 164.1 | Activity [9]: 7.7 ng/mL | Activity [10]: Non-toxic | Activity [11]: Non-toxic | Activity [12]: Non-toxic
